Measured values reported in US20070197432A1, “Peptides for preventing, diagnosing and treating animal and/or human leptospirosis” (priority 2002, published 2007).
No end group written: not given here.

Experiments:
[1] = tested on: PP peptide; assay: Immunization of mice with PP peptide coupled to KLH, anti-PP IgG1/IgG2A ELISA; assay type: in vivo
Method: A batch of 5 mice was formed. Two injections were administered subcutaneously, two weeks apart. The 1st injection consists of 10 μg of PP peptide coupled to KLH, with complete Freund's adjuvant, in a volume of 200 μl (v/v). The 2nd injection consists of 10 μg of PP peptide coupled to KLH, with incomplete Freund's adjuvant, in a volume of 200 μl (v/v). This trial was carried out twice.
In parallel, a batch of 5 mice given nothing is used as a control.
A blood sample was taken two weeks after the second injection for serological monitoring.
The anti-PP antibodies produced in the mice are titered by means of an ELISA technique either on individual serological samples or on pools of several sera. The PP antigen is adsorbed in Immulon 4 plates (Dynatech) at a rate of 500 ng of PP per well diluted in 10 mM sodium carbonate buffer, pH=9.4.
After an overnight period at 4° C., the plates are washed with PBS containing 0.2% tween20, and then saturated with a solution of 1% BSA in TNE (50 mM Tris, 150 mM NaCl, 1 mM EDTA, pH 7.4) for 60 min at 37° C. […] The colored reaction is read in a spectrophotometer at 405 nm.
The results of the anti-PP IgG1 antibody response, expressed as corrected OD, of the immunization trials 1 and 2 with the PP peptide coupled to KLH are given in FIG. 1. […]

[2] = tested on: Leptospira interrogans sl serovar canicola; assay: Dogs immunized with PP-KLH, canicola challenge: cultures of plasma, urine and kidney samples; assay type: in vivo, dog
Method: (§1) The animals are given a challenge at a rate of one virulent culture of 4 to 6 days. For an immunized batch and a control batch, each animal received, in each eye, 0.3 ml of the culture having a titer of 120 TU (i.e. 2×10^8 leptospires per ml) and, intraperitoneally, 4 ml of the same culture diluted ten-fold.
(§2) The presence of leptospires was studied jointly by PCR (PCR specific for pathogenic leptospires) and by culturing, in the urine at D0, D10, D14, D18, D25 and D41 and in the kidney samples from each animal at the end of the trial at […].
(§3) Moreover, the bacteriological results were quantified through the setting up of a coefficient: • by immediate culturing. A single live leptospire can give a positive culture. A relative estimation of the bacterial concentration is expressed by means of a coefficient of 3 when a culture has developed in the third serial dilution prepared from the sample. • by PCR on frozen samples. […] A coefficient of 1 was assigned to a PCR with a weak signal and a coefficient of 2 to a strongly positive PCR.

[3] = tested on: Leptospira interrogans sl serovar canicola; assay: Dogs immunized with PP-KLH, canicola challenge: PCR on plasma, urine and kidney samples; assay type: in vivo, dog
Method: as §1, §2, §3

With “PP-KLH: PP peptide with cysteine added at the N-terminal position, coupled via sulfo-MBS to KLH carrier protein (keyhole limpet hemocyanin) (KAKPVQKLDDDDDGDDTYKEERHNK; not fully specified (N-terminus))” the immunogenicity [1] was “very immunogenic”, the “anti-PP IgG2A antibody response” value ([1]; 2 s.c. injections of 10 μg with Freund's adjuvant) was “high but less substantial than the anti-PP IgG1 response” and the positive cultures/dogs ([2]; Plasma, D0) was 0/6. For the same substance, the positive cultures/dogs ([2]; Plasma, D3) was 6/6, the positive cultures/dogs ([2]; Plasma, D7) was 0/6 and the positive cultures/dogs ([2]; Urine, D14) was 2/6. The positive cultures/dogs ([2]; Urine, D18) was 3/6, the positive cultures/dogs ([2]; Urine, D25) was 4/6 and the “renal carrier status at the time of euthanasia” value ([2]; detected both by culturing and by PCR, both groups) was “renal carriers”. For the same substance, the “excretion of leptospires in the urine” value ([2]; immunized versus control dogs, cultures and PCRs) was “becomes apparent later, or at a lower level”, the “positive PCR/dogs” value ([3]; Kidneys, D41) was 1/6 and the “positive PCR/dogs” value ([3]; Plasma, D0) was 0/6. The “positive PCR/dogs” value ([3]; Plasma, D3) was 6/6, the “positive PCR/dogs” value ([3]; Plasma, D7) was 0/6 and the “positive PCR/dogs” value ([3]; Urine, D14) was 2/6. The “positive PCR/dogs” value ([3]; Urine, D18) was 1/6, the “positive PCR/dogs” value ([3]; Urine, D25) was 3/6 and the “positive PCR/dogs” value ([3]; Urine, D41) was 4/6.
